Each structure is given as a SMILES string.

In this assay the target is T1, human TRPM8 (Homo sapiens, UniProt Q7Z2W7).
T1 construct: expressed in transfected cells; host or cells: Chinese hamster ovary (CHO) cells, T-REx tetracycline-inducible expression system (Invitrogen); co-transfected with pcDNA3.1 aequorin
In words: Luminescence readout assay for measuring intracellular calcium (aequorin, CHO cells expressing human TRPM8; icilin, L-menthol or cold activation). It counts as cell-based. As to conditions: CHO cells expressing human TRPM8, icilin activation (1 μM), aequorin luminescence; read-out: hTRPM8 IC50. Put shortly: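 Activation was by 1 μM icilin, 100 μM L-menthol (test compound 2.5 min ahead) or cold buffer below 10° C (compound 1 min ahead). Calcium rise measured as aequorin luminescence in CHO cells with tetracycline-inducible human TRPM8.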
In general terms: Calcium flux is commonly read through the fluorescence of an indicator in the cells.

T1 sequence (Q7Z2W7 whole entry): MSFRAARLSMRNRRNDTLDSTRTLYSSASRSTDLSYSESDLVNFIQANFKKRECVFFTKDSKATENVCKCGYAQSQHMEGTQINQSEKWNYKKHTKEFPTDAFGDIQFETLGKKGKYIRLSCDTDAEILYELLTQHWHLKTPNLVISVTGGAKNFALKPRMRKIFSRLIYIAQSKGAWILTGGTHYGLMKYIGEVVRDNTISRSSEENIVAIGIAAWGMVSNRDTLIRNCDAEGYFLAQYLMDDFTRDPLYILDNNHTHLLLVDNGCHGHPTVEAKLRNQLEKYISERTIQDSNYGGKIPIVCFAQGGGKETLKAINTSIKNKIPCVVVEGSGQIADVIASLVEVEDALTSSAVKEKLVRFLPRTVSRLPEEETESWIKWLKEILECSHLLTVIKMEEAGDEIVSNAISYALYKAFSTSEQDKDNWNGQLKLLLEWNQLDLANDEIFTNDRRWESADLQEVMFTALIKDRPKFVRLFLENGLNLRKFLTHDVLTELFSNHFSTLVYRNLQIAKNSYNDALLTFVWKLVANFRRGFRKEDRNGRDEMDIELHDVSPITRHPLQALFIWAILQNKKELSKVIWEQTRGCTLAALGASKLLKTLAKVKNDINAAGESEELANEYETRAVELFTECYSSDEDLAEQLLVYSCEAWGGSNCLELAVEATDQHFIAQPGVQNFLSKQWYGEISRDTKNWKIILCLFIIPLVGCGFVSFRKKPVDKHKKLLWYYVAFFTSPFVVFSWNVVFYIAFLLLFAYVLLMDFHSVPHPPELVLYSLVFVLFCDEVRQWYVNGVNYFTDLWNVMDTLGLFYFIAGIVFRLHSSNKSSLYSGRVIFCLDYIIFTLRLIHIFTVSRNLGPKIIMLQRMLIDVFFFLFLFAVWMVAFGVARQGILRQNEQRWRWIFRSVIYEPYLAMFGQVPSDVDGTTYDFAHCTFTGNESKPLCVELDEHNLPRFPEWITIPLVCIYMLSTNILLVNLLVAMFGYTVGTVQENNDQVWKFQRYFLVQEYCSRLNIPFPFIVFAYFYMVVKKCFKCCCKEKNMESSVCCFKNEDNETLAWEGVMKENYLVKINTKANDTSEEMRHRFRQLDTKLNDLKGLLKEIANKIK

As to `COc1ncccc1-c1ccc([C@@]2(NC(=O)c3ccc(F)cc3)CCOc3cccnc32)cc1` [Example 131, (S)-4-fluoro-N-(4-(4-(2-methoxypyridin-3-yl)phenyl)-3,4-dihydro-2H-pyrano[3,2-b]pyridin-4-yl)benzamide], the IC50 (as a rule, the concentration that inhibits the measured activity by half) came out at 113 nM.
The result for `Cc1ccncc1-c1ccc([C@@]2(NC(=O)c3ccc(F)cc3)CCOc3cccnc32)cc1` [Example 132, (S)-4-fluoro-N-(4-(4-(4-methylpyridin-3-yl)phenyl)-3,4-dihydro-2H-pyrano[3,2-b]pyridin-4-yl)benzamide] reads 216 nM; that for `O=C(N[C@]1(c2ccc(-c3ccc(N4CCOCC4)cc3)cc2)CCOc2cccnc21)c1ccc(F)cc1` [Example 133, (S)-4-fluoro-N-(4-(4′-morpholino-[1,1′-biphenyl]-4-yl)-3,4-dihydro-2H-pyrano[3,2-b]pyridin-4-yl)benzamide], 156 nM.
Under `O=C(N[C@]1(c2ccc(-c3cccc(F)c3O)cc2)CCOc2cccnc21)c1ccc(F)cc1` [Example 134, (S)-4-fluoro-N-(4-(3′-fluoro-2′-hydroxy-[1,1′-biphenyl]-4-yl)-3,4-dihydro-2H-pyrano[3,2-b]pyridin-4-yl)benzamide] stands 320 nM.
`COc1cccc(-c2ccc([C@@]3(NC(=O)c4ccc(F)cc4)CCOc4cccnc43)cc2)c1O` [Example 135, (S)-4-fluoro-N-(4-(2′-hydroxy-3′-methoxy-[1,1′-biphenyl]-4-yl)-3,4-dihydro-2H-pyrano[3,2-b]pyridin-4-yl)benzamide]: the IC50 was 113 nM.
For `COc1ccc(-c2ccc([C@@]3(NC(=O)c4ccc(F)cc4)CCOc4cccnc43)cc2)c(CO)c1` [Example 136, (S)-4-fluoro-N-(4-(2′-(hydroxymethyl)-4′-methoxy-[1,1′-biphenyl]-4-yl)-3,4-dihydro-2H-pyrano[3,2-b]pyridin-4-yl)benzamide], the IC50 was 784 nM.
`CN(C)C(=O)c1ccc(-c2ccc([C@@]3(NC(=O)c4ccc(F)cc4)CCOc4cccnc43)cc2)cc1` [Example 137, (S)-4′-(4-(4-fluorobcnzamido)-3,4-dihydro-2H-pyrano[3,2-b]pyridin-4-yl)-N,N-dimethyl-[1,1′-biphenyl]-4-carboxamide]: the half-inhibitory concentration (IC50) was determined as 1520 nM.
Under `CNC(=O)c1ccc(-c2ccc([C@@]3(NC(=O)c4ccc(F)cc4)CCOc4cccnc43)cc2)cc1` [Example 138, (S)-4′-(4-(4-fluorobenzamido)-3,4-dihydro-2H-pyrano[3,2-b]pyridin-4-yl)-N-methyl-[1,1′-biphenyl]-4-carboxamide] stands 3160 nM; under `O=C(N[C@]1(c2ccc(-c3cnc(Cl)nc3)cc2)CCOc2cccnc21)c1ccc(F)cc1` [Example 139, (S)-N-(4-(4-(2-chloropyrirnidin-5-yl)phenyl)-3,4-dihydro-2H-pyrano[3,2-b]pyridin-4-yl)-4-fluorobenzamide], 122 nM.
The result for `O=C(N[C@]1(c2ccc(-c3cc(F)ccc3CO)cc2)CCOc2cccnc21)c1ccc(F)cc1` [Example 140, (S)-4-fluoro-N-(4-(5′-fluoro-2′-(hydroxymethyl)-[1,1′-biphenyl]-4-yl)-3,4-dihydro-2H-pyrano[3,2-b]pyridin-4-yl)benzamide] reads 340 nM; that for `N#Cc1cncc(-c2ccc([C@@]3(NC(=O)c4ccc(F)cc4)CCOc4cccnc43)cc2)c1` [Example 141, (S)-N-(4-(4-(5-cyanopyridin-3-yl)phenyl)-3,4-dihydro-2H-pyrano[3,2-b]pyridin-4-yl)-4-fluorobenzamide], 260 nM.
Under `O=C(N[C@]1(c2ccc(-c3cccc(N4CCOCC4)c3)cc2)CCOc2cccnc21)c1ccc(F)cc1` [Example 142, (S)-4-fluoro-N-(4-(3′-morpholino-[1,1′-biphenyl]-4-yl)-3,4-dihydro-2H-pyrano[3,2-b]pyridin-4-yl)benzamide] stands 336 nM; under `Nc1ccccc1-c1ccc([C@@]2(NC(=O)c3ccc(F)cc3)CCOc3cccnc32)cc1` [Example 143, (S)-N-(4-(2′-amino-[1,1′-biphenyl]-4-yl)-3,4-dihydro-2H-pyrano[3,2-b]pyridin-4-yl)-4-fluorobenzamide], 176 nM.
In the case of `CS(=O)(=O)c1ccccc1-c1ccc([C@@]2(NC(=O)c3ccc(F)cc3)CCOc3cccnc32)cc1` [Example 144, (S)-4-fluoro-N-(4-(2′-(methylsulfonyl)-[1,1′-biphenyl]-4-yl)-3,4-dihydro-2H-pyrano[3,2-b]pyridin-4-yl)benzamide], the IC50 turned out to be 1920 nM.
Under `O=C(N[C@]1(c2ccc(-c3ccoc3)cc2)CCOc2cccnc21)c1ccc(F)cc1` [Example 145, (S)-4-fluoro-N-(4-(4-(furan-3-yl)phenyl)-3,4-dihydro-2H-pyrano[3,2-b]pyridin-4-yl)benzamide] stands 70 nM; under `COc1cc(-c2ccc([C@@]3(NC(=O)c4ccc(F)cc4)CCOc4cccnc43)cc2)ccn1` [Example 146, (S)-4-fluoro-N-(4-(4-(2-methoxypyridin-4-yl)phenyl)-3,4-dihydro-2H-pyrano[3,2-b]pyridin-4-yl)benzamide], 88 nM.
Under `Nc1ccc(-c2ccc([C@@]3(NC(=O)c4ccc(F)cc4)CCOc4cccnc43)cc2)cc1` [Example 147, (S)-N-(4-(4′-amino-[1,1′-biphenyl]-4-yl)-3,4-dihydro-2H-pyrano[3,2-b]pyridin-4-yl)-4-fluorobenzamide] stands 1530 nM.
The result for `Cc1ccc(-c2ccc([C@@]3(NC(=O)c4ccc(F)cc4)CCOc4cccnc43)cc2)cc1N` [Example 148, (S)-N-(4-(3′-amino-4′-methyl-[1,1′-biphenyl]-4-yl)-3,4-dihydro-2H-pyrano[3,2-b]pyridin-4-yl)-4-fluorobenzamide] reads 770 nM.
In the case of `COc1ncc(-c2ccc([C@@]3(NC(=O)c4ccc(F)cc4)CCOc4cccnc43)cc2)c(OC)n1` [Example 149, (S)-N-(4-(4-(2,4-dimethoxypyrimidin-5-yl)phenyl)-3,4-dihydro-2H-pyrano[3,2-b]pyridin-4-yl)-4-fluorobenzamide], the IC50 is 299 nM.
The result for `Cc1nnc(-c2cccc(-c3ccc([C@@]4(NC(=O)c5ccc(F)cc5)CCOc5cccnc54)cc3)c2)o1` [Example 150, (S)-4-fluoro-N-(4-(3′-(5-methyl-1,3,4-oxadiazol-2-yl)-[1,1′-biphenyl]-4-yl)-3,4-dihydro-2H-pyrano[3,2-b]pyridin-4-yl)benzamide] reads 1190 nM; that for `O=C(N[C@]1(c2ccc(-c3ccc(CO)cc3)cc2)CCOc2cccnc21)c1ccc(F)cc1` [Example 151, (S)-4-fluoro-N-(4-(4′-(hydroxymethyl)-[1,1′-biphenyl]-4-yl)-3,4-dihydro-2H-pyrano[3,2-b]pyridin-4-yl)benzamide], 1640 nM; that for `CC(C)(C)[S@@+]([O-])N[C@]1(c2ccc(OC(F)(F)F)c(F)c2)CCOc2cccnc21` [Example 152, (R)—N—((S)-4-(3-fluoro-4-(trifluoromethoxy)phenyl)-3,4-dihydro-2H-pyrano[3,2-b]pyridin-4-yl)-2-methylpropane-2-sulfinamide], 2400 nM.
The result for `N#Cc1ccc(-c2ccc([C@@]3(NC(=O)c4ccc(F)cc4)CCOc4cccnc43)cc2)cc1` [Example 153, (S)—N-(4-(4′-cyano-[1,1′-biphenyl]-4-yl)-3,4-dihydro-2H-pyrano[3,2-b]pyridin-4-yl)-4-fluorobenzamide] reads 112 nM; that for `N#Cc1ccc(-c2ccc([C@@]3(NC(=O)c4ccccc4)CCOc4cccnc43)cc2)cc1` [Example 154, (S)—N-(4-(4′-cyano-[1,1′-biphenyl]-4-yl)-3,4-dihydro-2H-pyrano[3,2-b]pyridin-4-yl)benzamide], 91 nM; that for `CC(=O)c1ccc(C(=O)N[C@]2(c3ccc(OC(F)(F)F)c(F)c3)CCOc3cccnc32)cc1` [Example 156, (S)-4-acetyl-N-(4-(3-fluoro-4-(trifluoromethoxy)phenyl)-3,4-dihydro-2H-pyrano[3,2-b]pyridin-4-yl)benzamide], 8 nM.
Turning to `O=C(N[C@]1(c2ccc(OC(F)(F)F)c(F)c2)CCOc2cccnc21)c1ccc(C(=O)C(F)(F)F)cc1` [Example 160, (S)—N-(4-(3-fluoro-4-(trifluoromethoxy)phenyl)-3,4-dihydro-2H-pyrano[3,2-b]pyridin-4-yl)-4-(2,2,2-trifluoroacetyl)benzamide 2,2,2-trifluoroacetate], the IC50 was determined as 39 nM.
For the molecule `O=C(O)c1ccc(C(=O)N[C@@]2(c3ccc(OC(F)(F)F)c(F)c3)COc3cccnc32)nc1` [Example 161, (R)-6-((3-(3-Fluoro-4-(trifluoromethoxy)phenyl)-2,3-dihydrofuro[3,2-b]pyridin-3-yl)carbamoyl)nicotinic acid], the IC50 came out at 42 nM.
Under `CCOC(=O)c1ncc(C(=O)N[C@]2(c3ccc(OC(F)(F)F)c(F)c3)CCOc3cccnc32)[nH]1` [Example 162] stands 92 nM.
The result for `Cn1cncc1C(=O)N[C@]1(c2ccc(OC(F)(F)F)c(F)c2)CCOc2cccnc21` [Example 163, (S)—N-(4-(3-fluoro-4-(trifluoromethoxy)phenyl)-3,4-dihydro-2H-pyrano[3,2-b]pyridin-4-yl)-1-methyl-1H-imidazole-5-carboxamide 2,2,2-trifluoroacetate] reads 102 nM; that for `O=C(N[C@]1(c2ccc(OC(F)(F)F)c(F)c2)CCOc2nccnc21)c1ccc(=O)[nH]c1` [Example 164, (S)-N-(8-(3-fluoro-4-(trifluoromethoxy)phenyl)-7,8-dihydro-6H-pyrano[2,3-b]pyrazin-8-yl)-6-oxo-1,6-dihydropyridine-3-carboxamide], 2230 nM.
Regarding `O=C(N[C@]1(c2ccc(OC(F)(F)F)c(F)c2)CC(=O)c2cccnc21)c1ccc(=O)[nH]c1` [Example 165, (S)-N-(7-(3-fluoro-4-(trifluoromethoxy)phenyl)-5-oxo-6,7-dihydro-5H-cyclopenta[b]pyridin-7-yl)-6-oxo-1,6-dihydropyridine-3-carboxamide], the IC50 amounted to 531 nM.

The record behind these values is patent US20150031668A1, “CHROMAN DERIVATIVES AS TRPM8 INHIBITORS” (AMGEN INC., priority 2013, published 2015).
